This passage reports ED50 results from ChEMBL document CHEMBL1135164, “New ketosteroids from the red alga Hypnea musciformis” (Bioorg Med Chem Lett, 2002).

The assay concerns the target T1, Chymotrypsin-like elastase family member 2A (Sus scrofa) (UniProt P08419).
T1 sequence (whole entry): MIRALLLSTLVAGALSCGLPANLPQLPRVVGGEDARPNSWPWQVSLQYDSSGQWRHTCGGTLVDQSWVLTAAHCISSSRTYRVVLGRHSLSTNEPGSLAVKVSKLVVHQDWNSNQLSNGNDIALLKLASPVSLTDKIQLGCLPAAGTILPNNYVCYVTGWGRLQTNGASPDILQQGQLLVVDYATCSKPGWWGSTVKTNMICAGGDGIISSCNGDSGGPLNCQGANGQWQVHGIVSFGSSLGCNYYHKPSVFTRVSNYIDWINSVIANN
Nature of the assay: Effective dose for inhibition of the porcine Pancreatic elastase.

`CC(C)C/C=C/[C@](C)(O)[C@H]1CC[C@H]2[C@@H]3CC(=O)[C@H]4CC(=O)CC[C@]4(C)[C@H]3CC[C@@]21C`: the ED50 worked out at 100 µM.
